The values below come from patent US20240116948A1, “PYRIDO OXAZINE DERIVATIVES AS ALK5 INHIBITORS” (CHIESI FARMACEUTICI S.P.A., priority 2020, published 2024).

Like-named read-outs stand apart in the source and are kept apart here.

The test concerns the target human ALK5 (Homo sapiens (Human), UniProt P36897). Description: ADP-GLO Kinases assay, inhibition of ALK5 kinase activity. It is filed as biochemical. The protocol:
The enzymatic activity of compounds of the present invention was monitored measuring the formation of ADP using the ADP-GLO Kinases assay. Following the incubation of the purified enzyme, a substrate and ATP, the produced ADP was converted into ATP, which in turn was converted into light by Ultra-Glo Luciferase. The luminescent signal positively correlated with ADP amount and kinase activity. Briefly, the kinase reaction was performed by incubating 2.6 nM of the purified, commercially available human ALK5 (recombinant TGF 31 N-term GST-tagged, 80-end), a final concentration of TGFβ1 peptide 94.5 μM (Promega, T36-58) and ultra-pure ATP (Promega V915B). The ATP concentration was set at the Km value (concentration of substrate which permits the enzyme to achieve half maximal velocity (Vmax)) of ALK5 (5 μM). All reactions/incubations were performed at 25° C. Compound and ALK5 kinase were mixed and incubated for 15 mins. Reactions were initiated by addition of ATP at a final concentration in the assay of […]. After an incubation of 150 min, the reaction was stopped, and ADP production detected with ADP-Glo kit according to manufacturer's indications. The assay was performed in 384-well format and was validated using a selection of reference compounds that was tested in 11 point concentration-response curve.
Compounds of the examples C1 and C2 were tested in the same in vitro assay described above.

Where [1] appears, read: Table 12, compounds classified in term of potency, ATP at Km, 25° C., read-out: ALK5 IC50.

Sequence of human ALK5 (P36897 80-503 limits assumed): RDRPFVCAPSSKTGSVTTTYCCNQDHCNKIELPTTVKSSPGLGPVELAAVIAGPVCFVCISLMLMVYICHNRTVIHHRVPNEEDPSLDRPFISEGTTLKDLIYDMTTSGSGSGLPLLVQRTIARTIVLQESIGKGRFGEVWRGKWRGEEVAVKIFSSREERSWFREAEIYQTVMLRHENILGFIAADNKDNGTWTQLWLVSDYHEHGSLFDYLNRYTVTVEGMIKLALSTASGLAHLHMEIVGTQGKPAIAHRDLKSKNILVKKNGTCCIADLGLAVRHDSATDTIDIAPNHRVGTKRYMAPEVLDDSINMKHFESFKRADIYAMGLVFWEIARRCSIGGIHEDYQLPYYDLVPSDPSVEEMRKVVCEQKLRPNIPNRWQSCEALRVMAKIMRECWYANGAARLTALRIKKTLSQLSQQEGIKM

`COc1cncc(-c2cc(-c3cc(Cl)ccc3F)nc3c2OCCN3)c1` [Example 25, 3-[6-(5-chloro-2-fluorophenyl)-2H,3H,4H-pyrido[3,2-b][1,4]oxazin-8-yl]-5-methoxypyridine]: the IC50 under setting [1] is ≤ 1 nM.

For the compound `Cc1cccc(-c2cc(-c3cncc4ccccc34)c3c(n2)NCCO3)n1` [Example 3, 4-[6-(6-methylpyridin-2-yl)-2H,3H,4H-pyrido[3,2-b][1,4]oxazin-8-yl]isoquinoline], the IC50 under setting [1] fell in the range of 1 to 5 nM.

Regarding `Fc1ccc(Cl)cc1-c1cc(-c2cncc3ccccc23)c2c(n1)NCCO2` [Example 2, 4-[6-(5-chloro-2-fluorophenyl)-2H,3H,4H-pyrido[3,2-b][1,4]oxazin-8-yl]isoquinoline], the IC50 under setting [1] was in the range of 1 to 5 nM.

For `COC(=O)CN(C)CCC(=O)Nc1cncc(-c2cc(-c3cc(Cl)ccc3F)nc3c2OCCN3)c1` [Example 48, Methyl 2-{[2-({5-[6-(5-chloro-2-fluorophenyl)-2H,3H,4H-pyrido[3,2-b][1,4]oxazin-8-yl]pyridin-3-yl}carbamoyl)ethyl](methyl)amino}acetate], the IC50 under setting [1] was 5 to 10 nM.

With `O=C(NCCN1CCOCC1)c1cncc(-c2cc(-c3cc(Cl)ccc3F)nc3c2OCCN3)c1` [Example 11, 5-[6-(5-chloro-2-fluorophenyl)-2H,3H,4H-pyrido[3,2-b][1,4]oxazin-8-yl]-N-[2-(morpholin-4-yl)ethyl]pyridine-3-carboxamide], the IC50 under setting [1] fell in the range of 5 to 10 nM.

As for `Fc1ccc(Cl)cc1-c1cc(-c2cncc(OC3CCOC3)c2)c2c(n1)NCCO2` (stereo not shown) [Example 36, 3-[6-(5-chloro-2-fluorophenyl)-2H,3H,4H-pyrido[3,2-b][1,4]oxazin-8-yl]-5-(oxolan-3-yloxy)pyridine], under setting [1], the IC50 fell in the range of 1 to 5 nM.

In the case of `Cc1cccc(-c2cc(-c3cnc4[nH]ncc4c3)c3c(n2)NCCO3)n1` [Example 35, 2-methyl-6-(8-{1H-pyrazolo[3,4-b]pyridin-5-yl}-2H,3H,4H-pyrido[3,2-b][1,4]oxazin-6-yl)pyridine], the IC50 under setting [1] lay within 5 to 10 nM.

On to `CN1CCC(COc2cncc(-c3cc(-c4cc(Cl)ccc4F)nc4c3OCCN4)c2)CC1` [Example 42, 3-[6-(5-chloro-2-fluorophenyl)-2H,3H,4H-pyrido[3,2-b][1,4]oxazin-8-yl]-5-[(1-methylpiperidin-4-yl)methoxy]pyridine], for which the IC50 under setting [1] was in the range of 1 to 5 nM.

For `Nc1cncc(-c2cc(-c3cc(Cl)ccc3F)nc3c2OCCN3)c1` [Example 5, 5-[6-(5-chloro-2-fluorophenyl)-2H,3H,4H-pyrido[3,2-b][1,4]oxazin-8-yl]pyridin-3-amine], under setting [1], the IC50 lay in the range of 1 to 5 nM.

Regarding `NC(=O)c1cncc(-c2cc(-c3cc(Cl)ccc3F)nc3c2OCCN3)c1` [Example 6, 5-[6-(5-chloro-2-fluorophenyl)-2H,3H,4H-pyrido[3,2-b][1,4]oxazin-8-yl]pyridine-3-carboxamide], the IC50 under setting [1] was in the range of 1 to 5 nM.

As to `Fc1ccc(Cl)cc1-c1cc(-c2cnc3[nH]ccc3c2)c2c(n1)NCCO2` [Example 13, 6-(5-chloro-2-fluorophenyl)-8-{1H-pyrrolo[2,3-b]pyridin-5-yl}-2H,3H,4H-pyrido[3,2-b][1,4]oxazine], under setting [1], the IC50 lay within 5 to 10 nM.

Take `O=C(OC1CC1)c1cncc(-c2cc(-c3cc(Cl)ccc3F)nc3c2OCCN3)c1` [Example 40, Cyclopropyl 5-[6-(5-chloro-2-fluorophenyl)-2H,3H,4H-pyrido[3,2-b][1,4]oxazin-8-yl]pyridine-3-carboxylate]: the IC50 under setting [1] is 1 to 5 nM.

On to `O=C(CCCN1CCNCC1)Nc1cncc(-c2cc(-c3cc(Cl)ccc3F)nc3c2OCCN3)c1` [Example 33, N-{5-[6-(5-chloro-2-fluorophenyl)-2H,3H,4H-pyrido[3,2-b][1,4]oxazin-8-yl]pyridin-3-yl}-4-(piperazin-1-yl)butanamide], for which, under setting [1], the IC50 was 1 to 5 nM.

With `CN1CCN(CCC(=O)Nc2cncc(-c3cc(-c4cc(Cl)ccc4F)nc4c3OCCN4)c2)CC1=O` [Example 46, N-{5-[6-(5-chloro-2-fluorophenyl)-2H,3H,4H-pyrido[3,2-b][1,4]oxazin-8-yl]pyridin-3-yl}-3-(4-methyl-3-oxopiperazin-1-yl)propanamide], under setting [1], the IC50 was 5 to 10 nM.

As to `CN(CCC(=O)Nc1cncc(-c2cc(-c3cc(Cl)ccc3F)nc3c2OCCN3)c1)C1COC1` [Example 45, N-{5-[6-(5-chloro-2-fluorophenyl)-2H,3H,4H-pyrido[3,2-b][1,4]oxazin-8-yl]pyridin-3-yl}-3-[methyl(oxetan-3-yl)amino]propanamide], under setting [1], the IC50 fell in the range of 1 to 5 nM.

Consider `Fc1ccc(Cl)cc1-c1cc(-c2cnc3[nH]cnc3c2)c2c(n1)NCCO2` [Example 14, 6-(5-chloro-2-fluorophenyl)-8-{3H-imidazo[4,5-b]pyridin-6-yl}-2H,3H,4H-pyrido[3,2-b][1,4]oxazine], for which, under setting [1], the IC50 is 5 to 10 nM.

Take `Fc1ccc(Cl)cc1-c1cc(-c2cccnc2)c2c(n1)NCCO2` [Example 1, 3-[6-(5-chloro-2-fluorophenyl)-2H,3H,4H-pyrido[3,2-b][1,4]oxazin-8-yl]pyridine]: under setting [1], the IC50 lay in the range of 5 to 10 nM.

`O=C(CCN1CCNCC1)Nc1cncc(-c2cc(-c3cc(Cl)ccc3F)nc3c2OCCN3)c1` [Example 16, N-{5-[6-(5-chloro-2-fluorophenyl)-2H,3H,4H-pyrido[3,2-b][1,4]oxazin-8-yl]pyridin-3-yl}-3-(piperazin-1-yl)propanamide]: under setting [1], the IC50 was in the range of 1 to 5 nM.

Take `CN1CCN(CCNC(=O)c2cncc(-c3cc(-c4cc(Cl)ccc4F)nc4c3OCCN4)c2)CC1` [Example 37, 5-[6-(5-chloro-2-fluorophenyl)-2H,3H,4H-pyrido[3,2-b][1,4]oxazin-8-yl]-N-[2-(4-methylpiperazin-1-yl)ethyl]pyridine-3-carboxamide]: the IC50 under setting [1] was 1 to 5 nM.

Consider `CN(C)CC(=O)Nc1cncc(-c2cc(-c3cc(Cl)ccc3F)nc3c2OCCN3)c1` [Example 15, N-{5-[6-(5-chloro-2-fluorophenyl)-2H,3H,4H-pyrido[3,2-b][1,4]oxazin-8-yl]pyridin-3-yl}-2-(dimethylamino)acetamide], for which, under setting [1], the IC50 was 5 to 10 nM.

As to `CNCCC(=O)Nc1cncc(-c2cc(-c3cc(Cl)ccc3F)nc3c2OCCN3)c1` [Example 22, N-{5-[6-(5-chloro-2-fluorophenyl)-2H,3H,4H-pyrido[3,2-b][1,4]oxazin-8-yl]pyridin-3-yl}-3-(methylamino)propanamide], the IC50 under setting [1] was ≤ 1 nM.

Turning to `CNCCNC(=O)c1cncc(-c2cc(-c3cc(Cl)ccc3F)nc3c2OCCN3)c1` [Example 23, 5-[6-(5-chloro-2-fluorophenyl)-2H,3H,4H-pyrido[3,2-b][1,4]oxazin-8-yl]-N-[2-(methylamino)ethyl]pyridine-3-carboxamide], the IC50 under setting [1] was in the range of 1 to 5 nM.

With `CN1CCN(CCC(=O)Nc2cncc(-c3cc(-c4cc(Cl)ccc4F)nc4c3OCCN4)c2)CC1` [Example 38, N-{5-[6-(5-chloro-2-fluorophenyl)-2H,3H,4H-pyrido[3,2-b][1,4]oxazin-8-yl]pyridin-3-yl}-3-(4-methylpiperazin-1-yl)propanamide], under setting [1], the IC50 was in the range of 1 to 5 nM.

Consider `CN(C)CCCC(=O)Nc1cncc(-c2cc(-c3cc(Cl)ccc3F)nc3c2OCCN3)c1` [Example 17, N-{5-[6-(5-chloro-2-fluorophenyl)-2H,3H,4H-pyrido[3,2-b][1,4]oxazin-8-yl]pyridin-3-yl}-4-(dimethylamino)butanamide], for which, under setting [1], the IC50 was ≤ 1 nM.

As for `Fc1ccc(Cl)cc1-c1cc(-c2cncc(OCC3CCCO3)c2)c2c(n1)NCCO2` (stereo not shown) [Example 34, 3-[6-(5-chloro-2-fluorophenyl)-2H,3H,4H-pyrido[3,2-b][1,4]oxazin-8-yl]-5-[(oxolan-2-yl)methoxy]pyridine], under setting [1], the IC50 was 5 to 10 nM.

For the compound `COc1ccc(-c2cc(-c3cc(Cl)ccc3F)nc3c2OCCN3)cc1` [Example C1, 6-(5-chloro-2-fluorophenyl)-8-(4-methoxyphenyl)-2H,3H,4H-pyrido[3,2-b][1,4]oxazine], the IC50 runs as follows: (Table 13, comparative examples, same in vitro assay, read-out: ALK5 IC50) 10000 nM; (summary statements in running text, read-out: IC50 / potency on ALK5) > 1700 nM.

On to `O=C(NCCCN1CCNCC1)c1cncc(-c2cc(-c3cc(Cl)ccc3F)nc3c2OCCN3)c1` [Example 28, 5-[6-(5-chloro-2-fluorophenyl)-2H,3H,4H-pyrido[3,2-b][1,4]oxazin-8-yl]-N-[3-(piperazin-1-yl)propyl]pyridine-3-carboxamide], for which the IC50 under setting [1] was in the range of 1 to 5 nM.

In the case of `O=C(CCN1CCOCC1)Nc1cncc(-c2cc(-c3cc(Cl)ccc3F)nc3c2OCCN3)c1` [Example 9, N-{5-[6-(5-chloro-2-fluorophenyl)-2H,3H,4H-pyrido[3,2-b][1,4]oxazin-8-yl]pyridin-3-yl}-3-(morpholin-4-yl)propanamide], under setting [1], the IC50 is 1 to 5 nM.

Consider `CN(C)CCCNC(=O)c1cncc(-c2cc(-c3cc(Cl)ccc3F)nc3c2OCCN3)c1` [Example 21, 5-[6-(5-chloro-2-fluorophenyl)-2H,3H,4H-pyrido[3,2-b][1,4]oxazin-8-yl]-N-[3-(dimethylamino)propyl]pyridine-3-carboxamide], for which the IC50 under setting [1] was ≤ 1 nM.

With `O=C(CCN1CCCCC1)Nc1cncc(-c2cc(-c3cc(Cl)ccc3F)nc3c2OCCN3)c1` [Example 18, N-{5-[6-(5-chloro-2-fluorophenyl)-2H,3H,4H-pyrido[3,2-b][1,4]oxazin-8-yl]pyridin-3-yl}-3-(piperidin-1-yl)propanamide], the IC50 under setting [1] is ≤ 1 nM.
